Measured values reported in patent US20070117743A1, “New antitumoral compounds” (priority 2003, published 2007).
Where a SMILES comes first, the peptide text is derived from it. Bridges are numbered along the chain shown (N, C = ends). [ ]: non-standard residue; d: D form. The star is where a group is joined. ξ: configuration not given here. Pro(3ξ,4ξ-(CH2)4) = O=C(O)[C@H]1NCC2CCCCC21; Hexanoyl(4S-Me) = CC[C@H](C)CCC(=O)*; d(aIle) = CC[C@H](C)[C@@H](N)C(=O)O; d(aThr) = C[C@@H](O)[C@@H](N)C(=O)O; Tic = O=C(O)[C@@H]1Cc2ccccc2CN1; Orn = NCCC[C@H](N)C(=O)O; Dhb = C/C=C(\N)C(=O)O

Tests used:
Type in all cases: cell-based, human
LoVo = assay: SRB colorimetric assay of cell growth and viability, LoVo; settings: 48 hours exposure, SRB; for CC50: read-out: LC50 LOVO
PANC-1 = assay: SRB colorimetric assay of cell growth and viability, PANC-1; settings: 48 hours exposure, SRB; for CC50: read-out: LC50 PANC-1
LoVo-Dox = assay: SRB colorimetric assay of cell growth and viability, LoVo-Dox; settings: 48 hours exposure, SRB; for CC50: read-out: LC50 LOVO-DOX
Summary of the method: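 Sulforhodamine B assay run after 48 h of continuous drug contact; cells seeded 5×10^3/well in RPMI 1640 10% FBS, attached 18 h. Triplicate OD490 values give cytostatic (TGI), cytotoxic (LC) and GI parameters.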

HT-29 = assay: SRB colorimetric assay of cell growth and viability, HT-29; settings: 48 hours exposure, SRB; for GI50: read-out: GI50 HT-29; for CC50: read-out: LC50 HT-29
K-562 = assay: SRB colorimetric assay of cell growth and viability, K-562; settings: 48 hours exposure, SRB; for CC50: read-out: LC50 K-562
IGROV-ET = assay: SRB colorimetric assay of cell growth and viability, IGROV-ET; settings: 48 hours exposure, SRB; for CC50: read-out: LC50 IGROV-ET
DU-145 = assay: SRB colorimetric assay of cell growth and viability, DU-145; settings: 48 hours exposure, SRB
SK-MEL-28 = assay: SRB colorimetric assay of cell growth and viability, SK-MEL-28; settings: 48 hours exposure, SRB; for CC50: read-out: LC50 MEL-28
HeLa = assay: SRB colorimetric assay of cell growth and viability, HeLa; settings: 48 hours exposure, SRB; for CC50: read-out: LC50 HELA
A-549 = assay: SRB colorimetric assay of cell growth and viability, A-549; settings: 48 hours exposure, SRB; for GI50: read-out: GI50 A-549; for CC50: read-out: LC50 A-549
SK-BR-3 = assay: SRB colorimetric assay of cell growth and viability, SK-BR-3; settings: 48 hours exposure, SRB
Description: The finality of this assay is to interrupt the growth of a “in vitro” tumor cell culture by means a continued exhibition of the cells to the sample to be testing.
This form of the assay employs 96 well cell culture microplates of 9 mm diameter (Faircloth, 1988; Mosmann, 1983). Most of the cell lines are obtained from American Type Culture Collection (ATCC) derived from different human cancer types.
Cells are maintained in RPMI 1640 10% FBS, supplemented with 0.1 g/l penicillin and 0.1 g/l streptomycin sulfate and then incubated at 37° C., 5% CO2 and 98% humidity. For the experiments, cells were harvested from subconfluent cultures using trypsin and resuspended in fresh medium before plating.
Cells are seeded in 96 well microtiter plates, at 5×10^3 cells per well in aliquots of 195 μL medium, and they are allowed to attach to the plate surface by growing in drug free medium for 18 hours. Afterward, samples are added in aliquots of 5 μL in a ranging from 10 to 10^−8 μg/mL, dissolved in DMSO:EtOH:PBS (0.5:0.5:99). After 48 hours exposure, the antitumor effect are measured by the SRB methodology: cells are fixed by adding 50 μL of cold 50% (wt/vol) trichloroacetic acid (TCA) and incubating for 60 minutes at 4° C. Plates are washed with deionized water and dried. One hundred μL of SRB solution (0.4% wt/vol in 1% acetic acid) is added to each microtiter well and incubated for 10 minutes at room temperature. Unbound SRB is removed by washing with 1% acetic acid. Plates are air dried and bound stain is solubilized with Tris buffer. Optical densities are read on a automated spectrophotometric plate reader at a single wavelength of 490 nm.
The values for mean+/− SD of data from triplicate wells are calculated. Some parameters for cellular responses can be calculated: GI=growth inhibition, TGI=total growth inhibition (cytostatic effect) and LC=cell killing (cytotoxic effect).

IGROV-1 = assay: SRB colorimetric assay of cell growth and viability, IGROV-1; settings: 48 hours exposure, SRB
HeLa-APL = assay: SRB colorimetric assay of cell growth and viability, HeLa-APL; settings: 48 hours exposure, SRB; for CC50: read-out: LC50 HELA-APL

Structure (SMILES) | GI50 (LoVo) [µM] | TGI LOVO (LoVo) [Molar] | CC50 (LoVo) [µM] | GI50 (PANC-1) [µM] | TGI PANC-1 (PANC-1) [Molar] | CC50 (PANC-1) [µM] | GI50 (LoVo-Dox) [µM] | TGI LOVO-DOX (LoVo-Dox) [Molar] | CC50 (LoVo-Dox) [µM] | TGI HT-29 (HT-29) [Molar] | GI50 (HT-29) [µM] | CC50 (HT-29) [µM] | GI50 (K-562) [µM] | TGI K-562 (K-562) [Molar] | CC50 (K-562) [µM] | GI50 (IGROV-ET) [µM] | TGI IGROV-ET (IGROV-ET) [Molar] | CC50 (IGROV-ET) [µM] | GI50 (DU-145) [µM] | LC50 (concentration causing 50% net cell kill) (DU-145) [µM] | further results
C/C=C1\NC(=O)[C@@H]2Cc3ccccc3CN2C(=O)[C@@H](C(C)C)NC(=O)[C@@H]([C@@H](C)CC)NC(=O)[C@H](NC(=O)[C@H](NC(=O)[C@H](CCCN)NC(=O)[C@H]2CCCN2C(=O)[C@H](NC(=O)[C@@H](NC(=O)[C@@H](NC(=O)[C@H](NC(=O)CC[C@@H](C)CC)C(C)C)[C@@H](C)O)C(C)C)C(C)C)[C@@H](C)CC)[C@@H](C)OC(=O)[C@H](C(C)C)NC1=O [Compound 77, [Tic^3, (4S)-MeHex^14]-KF] ({Hexanoyl(4S-Me)}-[dV]TV[dV][dP][Orn][d(aIle)][d(aThr)][d(aIle)][dV][Tic][Dhb]V; ester 8-C) | 0.913 | 1.76E−06 | 3.4 | 6.74 | 6.74E−06 | 6.74 | 0.271 | 8.32E−07 | 2.14 | 2.21E−06 | 1.23 | 3.97 | 0.017 | 3.99E−06 | 6.71 | 1.42 | 2.34E−06 | 3.86 | 3.63 | 6.74 | TGI DU-145 (DU-145): 6.71E−06 Molar; GI50 (SK-MEL-28): 1.58 µM; TGI MEL-28 (SK-MEL-28): 3.41E−06 Molar; CC50 (SK-MEL-28): 6.71 µM; GI50 (HeLa): 1.43 µM; TGI HELA (HeLa): 2.29E−06 Molar; CC50 (HeLa): 3.66 µM; TGI A-549 (A-549): 2.58E−06 Molar; GI50 (A-549): 1.52 µM; CC50 (A-549): 4.4 µM; GI50 (SK-BR-3): 0.873 µM; LC50 (SK-BR-3): 5.51 µM; TGI SK-BR-3 (SK-BR-3): 2.19E−06 Molar; GI50 (IGROV-1): 1.61 µM; LC50 (concentration causing 50% net cell killing) (IGROV-1): 4.26 µM; TGI IGROV (IGROV-1): 2.62E−06 Molar; GI50 (HeLa-APL): 1.57 µM; TGI HELA-APL (HeLa-APL): 2.53E−06 Molar; CC50 (HeLa-APL): 4.07 µM
C/C=C1\NC(=O)[C@H](Cc2ccc(O)cc2)NC(=O)[C@@H](C(C)C)NC(=O)[C@@H]([C@@H](C)CC)NC(=O)[C@H](NC(=O)[C@H](NC(=O)[C@H](CCCN)NC(=O)[C@H]2CCCN2C(=O)[C@H](NC(=O)[C@@H](NC(=O)[C@@H](NC(=O)[C@H](NC(=O)CC[C@@H](C)CC)C(C)C)[C@@H](C)O)C(C)C)C(C)C)[C@@H](C)CC)[C@@H](C)OC(=O)[C@H](C(C)C)NC1=O [Compound 78, [Tyr^3, (4S)-MeHex^14]-KF] ({Hexanoyl(4S-Me)}-[dV]TV[dV][dP][Orn][d(aIle)][d(aThr)][d(aIle)][dV]Y[Dhb]V; ester 8-C) | 0.39 | 1.16E−06 | 2.71 | 2.56 | 6.69E−06 | 6.69 | 0.135 | 2.89E−07 | 0.621 | 1.99E−06 | 1.08 | 3.7 | 1.65 | 3.78E−06 | 6.69 | 0.93 | 1.79E−06 | 3.42 | 1.27 | 3.76 | TGI DU-145 (DU-145): 2.18E−06 Molar; GI50 (SK-MEL-28): 1.12 µM; TGI MEL-28 (SK-MEL-28): 2.01E−06 Molar; CC50 (SK-MEL-28): 3.59 µM; GI50 (HeLa): 1.16 µM; TGI HELA (HeLa): 1.97E−06 Molar; CC50 (HeLa): 3.36 µM; TGI A-549 (A-549): 2.23E−06 Molar; GI50 (A-549): 1.27 µM; CC50 (A-549): 3.92 µM; GI50 (SK-BR-3): 0.266 µM; LC50 (SK-BR-3): 2.58 µM; TGI SK-BR-3 (SK-BR-3): 1.02E−06 Molar; GI50 (IGROV-1): 0.877 µM; LC50 (concentration causing 50% net cell killing) (IGROV-1): 3.33 µM; TGI IGROV (IGROV-1): 1.71E−06 Molar; GI50 (HeLa-APL): 0.964 µM; TGI HELA-APL (HeLa-APL): 1.81E−06 Molar; CC50 (HeLa-APL): 3.42 µM
C/C=C1\NC(=O)[C@@H]2C3CCCCC3CN2C(=O)[C@@H](C(C)C)NC(=O)[C@@H]([C@@H](C)CC)NC(=O)[C@H](NC(=O)[C@H](NC(=O)[C@H](CCCN)NC(=O)[C@H]2CCCN2C(=O)[C@H](NC(=O)[C@@H](NC(=O)[C@@H](NC(=O)[C@H](NC(=O)CC[C@@H](C)CC)C(C)C)[C@@H](C)O)C(C)C)C(C)C)[C@@H](C)CC)[C@@H](C)OC(=O)[C@H](C(C)C)NC1=O (stereo partly drawn) [Compound 79, [Oic^3, (4S)-MeHex^14]-KF] ({Hexanoyl(4S-Me)}-[dV]TV[dV][dP][Orn][d(aIle)][d(aThr)][d(aIle)][dV][Pro(3ξ,4ξ-(CH2)4)][Dhb]V; ester 8-C) | 0.591 | 1.40E−06 | 3.02 | ≥ 6.75 | 6.75E−06 | ≥ 6.75 | 0.387 | 1.15E−06 | 2.56 | 2.43E−06 | 1.44 | 4.09 | 1.71 | 4.02E−06 | ≥ 6.75 | 1.98 | 4.28E−06 | ≥ 6.75 | 6.01 | ≥ 6.75 | TGI DU-145 (DU-145): 6.75E−06 Molar; GI50 (SK-MEL-28): 2.31 µM; TGI MEL-28 (SK-MEL-28): 6.75E−06 Molar; CC50 (SK-MEL-28): ≥ 6.75 µM; GI50 (HeLa): 2.69 µM; TGI HELA (HeLa): 6.75E−06 Molar; CC50 (HeLa): ≥ 6.75 µM; TGI A-549 (A-549): 6.75E−06 Molar; GI50 (A-549): 4.42 µM; CC50 (A-549): ≥ 6.75 µM; GI50 (SK-BR-3): 0.796 µM; LC50 (SK-BR-3): 3.43 µM; TGI SK-BR-3 (SK-BR-3): 1.65E−06 Molar; GI50 (IGROV-1): 1.91 µM; LC50 (concentration causing 50% net cell killing) (IGROV-1): 5.55 µM; TGI IGROV (IGROV-1): 3.25E−06 Molar; GI50 (HeLa-APL): 4.8 µM; TGI HELA-APL (HeLa-APL): 6.75E−06 Molar; CC50 (HeLa-APL): ≥ 6.75 µM
C/C=C1\NC(=O)[C@H](Cc2ccccc2)N(C)C(=O)[C@@H](C(C)C)NC(=O)[C@@H]([C@@H](C)CC)NC(=O)[C@H](NC(=O)[C@H](NC(=O)[C@H](CCCN)NC(=O)[C@H]2CCCN2C(=O)[C@H](NC(=O)[C@@H](NC(=O)[C@@H](NC(=O)[C@H](NC(=O)CC[C@@H](C)CC)C(C)C)[C@@H](C)O)C(C)C)C(C)C)[C@@H](C)CC)[C@@H](C)OC(=O)[C@H](C(C)C)NC1=O [Compound 80, [NMePhe^3, (4S)-MeHex^14]-KF] | 0.125 | 2.61E−07 | 0.545 | 1.9 | 3.82E−06 | 6.7 | 0.12 | 2.08E−07 | 0.359 | 4.03E−07 | 0.178 | 1.2 | 0.744 | 1.62E−06 | 3.54 | 0.583 | 1.39E−06 | 3.04 | 1.07 | 3.62 | TGI DU-145 (DU-145): 1.97E−06 Molar; GI50 (SK-MEL-28): 1.32 µM; TGI MEL-28 (SK-MEL-28): 2.25E−06 Molar; CC50 (SK-MEL-28): 3.84 µM; GI50 (HeLa): 0.392 µM; TGI HELA (HeLa): 1.19E−06 Molar; CC50 (HeLa): 2.51 µM; TGI A-549 (A-549): 2.03E−06 Molar; GI50 (A-549): 1.13 µM; CC50 (A-549): 3.67 µM; GI50 (SK-BR-3): 0.123 µM; LC50 (SK-BR-3): 1.43 µM; TGI SK-BR-3 (SK-BR-3): 3.29E−07 Molar; GI50 (IGROV-1): 0.416 µM; LC50 (concentration causing 50% net cell killing) (IGROV-1): 2.82 µM; TGI IGROV (IGROV-1): 1.17E−06 Molar; GI50 (HeLa-APL): 0.845 µM; TGI HELA-APL (HeLa-APL): 1.64E−06 Molar; CC50 (HeLa-APL): 3.19 µM
